Test results: patent US20240058424A1, “NBP-14 FOR TREATING ALZHEIMER'S ASSOCIATED WITH DOWN'S SYNDROME” (NEURO-BIO LTD, priority 2020, published 2024)
Values joined by “and” are separate entries in the source; they are usually repeats but may differ in a detail not shown here. Equal values may be shown once. Read-outs that look alike come from different tables or passages of the source. Where a SMILES comes first, the peptide text is derived from it.

Assays:
[1] = test system: Iba1 (activated microglia); experiment: Brain immunohistochemistry, gliosis (Iba1-positive cells); format: in vivo, mice
Experimental: (§1) Group 2 TG-VEH: 5xFAD mice treated with vehicle of formulation (saline).
(§2) Group 3 TG-NBP14: 5xFAD mice treated with NBP-14 at the dose 10 mg/kg.
(§3) Histological Time-Points: • After 1 single treatment at the start of treatment, in a satellite group of mice (T0W). • After 6 weeks of treatment (T6W) in a satellite group of mice. • After 14 weeks of treatment (14W) in a group of mice from NOR cohorts (analysis ongoing).
(§4) Brain samples from all Tg-5XFAD mice were fixed, cryosectioned and immunostained for detection of amyloid, phosphorylated Tau and gliosis using the antibodies listed in Table 1.
(§5) Serial sections were collected and every sixth section starting at the midline were immunostained for markers of AD pathology. A total of six sections per animal were used for quantitative analysis.
(§6) Having shown the ability of NBP-14 to reverse the cognitive decline observed in Tg-5XFAD mice as discussed above, the inventors then sought to determine the structural or physiological changes occurring in the brains of mice treated with NBP-14. […]

transgenic Tg-5XFAD mice [2] = experiment: Behavioural scoring of grooming/sitting during NOR procedure; format: in vivo; settings: chronic treatment, T1 and T2 phase of NOR procedure, 10 min each
Experimental: Grooming/sitting/locomotion was measured on the mice subjected to NOR testing [i.e., Wild Type data included at 14 weeks post treatment].
Behavioural scoring was assessed during the T1 (familiar) and T2 (novel) phase of NOR procedure (over 10 min each phase).

NeuN positive neurons = experiment: Brain immunohistochemistry, neuronal cell count (NeuN); format: in vivo, mice; settings: cortex and hippocampus
Experimental: as §1, §2, §3, §4, §5, §6

5xFAD mice = experiment: Clinical signs during intranasal treatment of 5xFAD mice; format: in vivo; settings: 30 mg/kg intranasal, dose lowered to 10 mg/kg from 2nd week
Experimental: Intranasal (IN, nose to brain) twice a week for 14 weeks (Volume of administration 10 μL/.

phosphorylated Tau = experiment: Brain immunohistochemistry, phosphorylated Tau (AT180, AT8); format: in vivo, mice; settings: for Intracellular phosphorylated Tau immunoreactivity (AT180): hippocampus and cortex of 5XFAD mice
Experimental: as §1, §2, §3, §4, §5
(§7) Having shown the ability of NBP-14 to reverse the cognitive decline observed in Tg-5XFAD mice as discussed above, the inventors then sought to determine the structural or physiological changes occurring in the brains of mice treated with NBP-14. The inventors utilised histological staining of the brain to determine the changes of various brain-located markers (i.e. phosphorylated Tau, NeuN, (3-amyloid, and Ibal) that are associated with cognitive decline in both 5XFAD mice and also mice that had been treated with NBP-14. These biomarkers were measured after acute treatment with NBP-14 and also six weeks after treatment.

transgenic Tg-5XFAD mice [3] = experiment: Novel Object Recognition (NOR) test for cognitive readout; format: in vivo
Text: Assessment of Novel Object Recognition (NOR) test at the following time points: • T0W, basal NOR behaviour immediately before starting of the experiment. • T6W, 6 weeks after starting of treatment. • T14W, 14 weeks after starting of treatment.
Group 1 WT mice (n=15) used as control animal during the experimental procedure. No subject to treatment.
Group 2 TG VEH: 5XFAD mice (n=14) treated with vehicle of formulation (saline).
Group 3 TG NBP14: 5XFAD mice (n=28) treated with NBP14 at the dose 10 mg/kg.
NOR behavioural assessment time points: • Immediately before start of treatment (T0W) • 6 weeks after start of treatment (T6W) • 14 weeks after start of treatment (T14W)
Behaviour recorded on video for subsequent scoring for the object exploration. Object investigation has been defined as directing the nose towards the object (i.e., sniffing or touching with the nose) at a distance of 2 cm or less. Climbing and sitting on the objects is not considered to be object examination.
A criterion of minimal level of object exploration was used in the study to exclude animals with naturally low levels of spontaneous exploration: mice having a minimal level of object exploration of lOs during the test trail will be included in the study.
Results were expressed as the total time spent (seconds) by animal towards the objects. The recognition index (RI) was also calculated as follows: (time exploring the novel object)/(time exploring novel+familiar)*100.
The inventors utilised a “novel object recognition” test, which measures the difference of the time spent exploring an unknown (i.e. novel) object versus a known or familiar object to determine the ability of mice to discriminate between novel and familiar objections that can be used as in indication of memory. The inventors used this test to determine the ability of NBP-14 to reverse memory decline in the transgenic mouse, Tg 5XFAD, predisposed to develop amyloid precursor protein (APP) and therefore amyloid plaques, and ultimately, dementia.
The inventors then determined the recognition index of mice. A recognition index above 50% reflects the ability of mice to explore an unfamiliar object (novel) than a recently presented object.

[4] = Blood/brain exposure to NBP-14 after intranasal administration (PK assessment); format: in vivo, mice; settings: for level at 0.5 h / tissue level at time at 0.5 h: 5XFAD, mouse, inhaled or intranasal; for level at 0.5 h: blood, read-out: Blood Concentration; for tissue level at time at 0.5 h: brain, read-out: Brain Concentration
Experimental: Assessment of PK profile for NBP14, 10mg/kg, to allow PK/PD correlations • Satellite group of mice at T0W and T6W. • Mice from NOR test at T14W.
Group 3 TG NBP14: 5XFAD mice (n=3 for each PK) treated with NBP14 at the dose 10 mg/kg.
After 1 single treatment at the start of treatment (T0W) in a satellite group of mice.
After 6 weeks of treatment (T6W) in a satellite group of mice. The day of PK profile mice were treated with NBP14.
After 14 weeks of treatment (14W) in 2 group of mice from NOR cohorts.
On the day of PK study, mice were treated with NBP14 at 10mg/kg (IN) and blood/brain collected at 30 minutes after treatment.
An additional group of mice was subjected to blood/brain collection for NBP14 exposure without treatment on the same day at the terminal time point, after 14 weeks of treatment, to evaluate an eventual accumulation of test compound (table 1).
The inventors measured the concentration of nasally applied NBP-14 in the blood and the brain of mice, to determine whether NBP-14 was capable of crossing the blood brain barrier when applied intranasally.

β-amyloid = experiment: Brain immunohistochemistry, β-amyloid (6E10 antibody); format: in vivo, mice; settings: for Mean intensity of β-amyloid (6E10) compared to vehicle: 6 weeks of treatment
Experimental: as §1, §2, §3, §4, §5, §7

[5] = acute treatment, cortex and hippocampus, visual inspection
[6] = 10 mg/kg, 5XFAD mice, 10 mg/kg intranasal twice a week, T = 14W [terminal], sampling 30 min after administration
[7] = T = 14W [terminal], treated 14 weeks but no treated last day

SMILES: CSCC[C@@H]1NC(=O)[C@H](Cc2ccc(O)cc2)NC(=O)[C@H](CO)NC(=O)[C@H](CO)NC(=O)[C@H](Cc2c[nH]c3ccccc23)NC(=O)[C@H](CCCNC(=N)N)NC(=O)[C@H](Cc2c[nH]cn2)NC(=O)[C@H](Cc2ccccc2)NC(=O)[C@H](CCC(=O)O)NC(=O)[C@H](C)NC(=O)[C@H](CCCCN)NC(=O)[C@H](Cc2c[nH]c3ccccc23)NC(=O)[C@H](Cc2c[nH]cn2)NC(=O)[C@H](C(C)C)NC1=O [NBP-14] (HELM PEPTIDE1{A.E.F.H.R.W.S.S.Y.M.V.H.W.K}$PEPTIDE1,PEPTIDE1,1:R1-14:R2$$$V2.0)
- Gliosis (Iba1-positive cells) compared to vehicle ([1]; 6 weeks of treatment, hippocampus): significant (P<0.005) decrease
- Total number or density of Iba1-positive cells compared to vehicle [1, 5]: no differences
- Reduction in sitting behaviour seen in vehicle-treated Tg-5XFAD mice (transgenic Tg-5XFAD mice [2]): reversed
- Total number or density of NeuN positive neurons compared to vehicle (NeuN positive neurons; 6 weeks of treatment): no differences
- Total number or density of NeuN positive neurons compared to vehicle (NeuN positive neurons; acute treatment): no differences
- Clinical signs (5xFAD mice): relevant clinical sign
- Intracellular phosphorylated Tau immunoreactivity (AT180) (phosphorylated Tau; 6 weeks treatment): no specific intracellular phosphorylated Tau immunoreactivity was detected
- pTau detected with AT8 (pS202/pT205) in non-neuronal (NeuN negative) cells (phosphorylated Tau; 14 weeks chronic treatment, cortex and hippocampus, very low levels seen in vehicle-treated mice): not in mice treated with NBP-14
- pTau detection (AT180) (phosphorylated Tau; 14 weeks chronic treatment, hippocampus, cortex, basal forebrain): no pTau (gold) was detected
- Intracellular phosphorylated Tau immunoreactivity (AT180) (phosphorylated Tau; acute treatment): no specific intracellular phosphorylated Tau immunoreactivity was detected
- Recognition index (RI) compared to vehicle-treated 5xFAD mice (transgenic Tg-5XFAD mice [3]; 10 mg/kg, terminal time point (14 weeks), n=27): statistical significant difference
- Time exploring the novel versus familiar object (transgenic Tg-5XFAD mice [3]; 5XFAD mice, 10 mg/kg intranasal twice a week, 6 weeks after treatment, n=28): no significant difference
- Time spent exploring novel object versus familiar object (transgenic Tg-5XFAD mice [3]; 5XFAD mice, 10 mg/kg intranasal twice a week, 14 weeks after treatment, n=27): statistically significant difference
- Cognitive performance compared to 5XFAD vehicle-treated mice (transgenic Tg-5XFAD mice [3]; 6 week time point of NOR testing): no statistically significant differences
- Brain Concentration ([4]; 5XFAD mice, 10 mg/kg intranasal, T = 0 (single treatment), sampling 30 min after administration): bql
- level at 0.5 h [4, 6]: 202 ng/mL
- level at 0.5 h ([4]; 10 mg/kg, 5XFAD mice, 10 mg/kg intranasal, T = 0 (single treatment), sampling 30 min after administration): 44.5 ng/mL
- tissue level at time at 0.5 h ([4]; 10 mg/kg, 5XFAD mice, 10 mg/kg intranasal twice a week, T = 6W [intermediate], sampling 30 min after administration): 19.3 ng/g
- tissue level at time at 0.5 h [4, 6]: 53 ng/g
- BB Ratio ([4]; T = 14W [terminal], 10 mg/kg intranasal, 30 min after administration, 10 mg/kg): 0.26 and 0.21 and 0.30
- Blood Concentration [4, 7]: bql
- Brain Concentration [4, 7]: bql
- Detection of NBP-14 in the brain ([4]; after acute treatment): no NBP-14 was observed in the brain
- Detection of NBP-14 in the brain ([4]; intranasal, after both 6 weeks and 14 weeks of treatment): detected in the brain
- Accumulation of the compound ([4]; mice treated for 14 weeks, not treated on the day of blood/brain collection): no accumulation
- Mean intensity of β-amyloid (6E10) compared to vehicle (β-amyloid; cortex (P<0.05)): significant decrease
- Mean intensity of β-amyloid (6E10) compared to vehicle (β-amyloid; hippocampus (P<0.005)): significant decrease
- Extracellular amyloid plaques compared to vehicle-treated controls (β-amyloid; 14 weeks, cortex, hippocampus and basal forebrain): significantly reduced
- Mean intensity of 6E10 (Aβ) compared to vehicle (β-amyloid; [5]): No differences
